Converted amounts (≈) assume the structure as drawn.

For the first experiment, the system named is Aspergillus niger. As to the kind of experiment: Antifungal activity against Aspergillus niger ATCC 16404. Format: functional.
Broadly, the MIC is the lowest concentration that inhibits growth of the organism. A low value points to greater potency. As for `Oc1ccc(/C(Cc2ccc(Cl)cc2)=N\c2ccc(Br)cc2)cc1O`, the MIC was above 50 µg/mL.
Turning to `Oc1ccc(/C(Cc2ccc(F)cc2)=N\c2ccc(Br)cc2)c(O)c1O`, the MIC was above 50 µg/mL.
Still for that read-out and setting: as for `O=C(Cc1ccc(Cl)cc1)c1ccc(O)c(O)c1O`, the figure is above 50 µg/mL.
The compound `O=C(Cc1ccc(Cl)cc1)c1ccc(O)cc1O` returned an MIC above 50 µg/mL.
Still for that read-out and setting: to `Oc1ccc(/N=C(/Cc2ccc(Cl)cc2)c2ccc(O)c(O)c2)cc1` belongs above 50 µg/mL.
The compound `Oc1ccc(/N=C(/Cc2ccc(F)cc2)c2ccc(O)c(O)c2)cc1` returned an MIC above 50 µg/mL.
On the same count and under the same terms, as for `Oc1ccc(/C(Cc2ccc(F)cc2)=N\c2ccc(Br)cc2)cc1O`, the figure is above 50 µg/mL; as for `Cc1ccc(/N=C(/Cc2ccc(F)cc2)c2ccc(O)c(O)c2)cc1`, above 50 µg/mL; as for `O=C(Cc1ccc(F)cc1)c1ccc(O)c(O)c1O`, above 50 µg/mL.
Consider `O=C(Cc1ccc(F)cc1)c1ccc(O)cc1O`, for which the MIC was above 50 µg/mL.
Still for that read-out and setting: to `Oc1ccc(/C(Cc2ccc(Cl)cc2)=N\c2ccc(Br)cc2)c(O)c1O` belongs above 50 µg/mL.

The next experiment relates to Escherichia coli. Put plainly: Antibacterial activity against Escherichia coli ATCC 35218. The format is functional.
As to `CC1(C)S[C@@H]2[C@H](NC(=O)Cc3ccccc3)C(=O)N2[C@H]1C(=O)O` [PENICILLIN G], the MIC was 6.25 µg/mL (≈ 18.7 µM).
For the compound `Oc1ccc(/C(Cc2ccc(Cl)cc2)=N\c2ccc(Br)cc2)cc1O`, inhibition of growth (MIC) required 12.5 µg/mL (≈ 30 µM).
`Oc1ccc(/C(Cc2ccc(F)cc2)=N\c2ccc(Br)cc2)c(O)c1O` returned an MIC of 25 µg/mL (≈ 60.1 µM).
The same measure, in the same setting: to `Oc1ccc(/N=C(/Cc2ccc(Cl)cc2)c2ccc(O)c(O)c2)cc1` belongs 25 µg/mL (≈ 70.7 µM); to `Oc1ccc(/N=C(/Cc2ccc(F)cc2)c2ccc(O)c(O)c2)cc1`, 50 µg/mL (≈ 148 µM); to `NC[C@H]1O[C@H](O[C@H]2[C@H](O)[C@@H](O[C@H]3O[C@H](CO)[C@@H](O)[C@H](N)[C@H]3O)[C@H](N)C[C@@H]2N)[C@H](N)[C@@H](O)[C@@H]1O` [BEKANAMYCIN], 3.12 µg/mL (≈ 6.46 µM).
In turn, `Oc1ccc(/C(Cc2ccc(F)cc2)=N\c2ccc(Br)cc2)cc1O` gave a minimal inhibitory concentration (MIC) of 12.5 µg/mL (≈ 31.2 µM).
As to `Cc1ccc(/N=C(/Cc2ccc(F)cc2)c2ccc(O)c(O)c2)cc1`, the MIC came out at 25 µg/mL (≈ 74.5 µM).
Still for that read-out and setting: to `Oc1ccc(/C(Cc2ccc(Cl)cc2)=N\c2ccc(Br)cc2)c(O)c1O` belongs 12.5 µg/mL (≈ 28.9 µM).

Another experiment deals with Bacillus subtilis. As to the kind of experiment: Antibacterial activity against Bacillus subtilis ATCC 6633. Format: functional.
In the case of `CC1(C)S[C@@H]2[C@H](NC(=O)Cc3ccccc3)C(=O)N2[C@H]1C(=O)O` [PENICILLIN G], the minimal inhibitory concentration (MIC) stood at 1.56 µg/mL (≈ 4.67 µM).
On the same count and under the same terms, to `Oc1ccc(/C(Cc2ccc(Cl)cc2)=N\c2ccc(Br)cc2)cc1O` belongs 25 µg/mL (≈ 60 µM).
As for `Oc1ccc(/C(Cc2ccc(F)cc2)=N\c2ccc(Br)cc2)c(O)c1O`, inhibition of growth (MIC) required 25 µg/mL (≈ 60.1 µM).
The same measure, in the same setting: as for `Oc1ccc(/N=C(/Cc2ccc(Cl)cc2)c2ccc(O)c(O)c2)cc1`, the figure is 50 µg/mL (≈ 141 µM); as for `Oc1ccc(/N=C(/Cc2ccc(F)cc2)c2ccc(O)c(O)c2)cc1`, 25 µg/mL (≈ 74.1 µM).
With `NC[C@H]1O[C@H](O[C@H]2[C@H](O)[C@@H](O[C@H]3O[C@H](CO)[C@@H](O)[C@H](N)[C@H]3O)[C@H](N)C[C@@H]2N)[C@H](N)[C@@H](O)[C@@H]1O` [BEKANAMYCIN], the MIC was 0.39 µg/mL (≈ 0.807 µM).
On the same count and under the same terms, to `Oc1ccc(/C(Cc2ccc(F)cc2)=N\c2ccc(Br)cc2)cc1O` belongs 25 µg/mL (≈ 62.5 µM); to `Cc1ccc(/N=C(/Cc2ccc(F)cc2)c2ccc(O)c(O)c2)cc1`, 25 µg/mL (≈ 74.5 µM); to `Oc1ccc(/C(Cc2ccc(Cl)cc2)=N\c2ccc(Br)cc2)c(O)c1O`, 50 µg/mL (≈ 116 µM).

The test system of the next experiment is Trichophyton rubrum. As to the kind of experiment: Antifungal activity against Trichophyton rubrum ATCC 10218.
On to `Oc1ccc(/C(Cc2ccc(Cl)cc2)=N\c2ccc(Br)cc2)cc1O`, for which the MIC is above 50 µg/mL.
For the compound `Oc1ccc(/C(Cc2ccc(F)cc2)=N\c2ccc(Br)cc2)c(O)c1O`, the MIC is above 50 µg/mL.
Same read-out and setting: as for `O=C(Cc1ccc(Cl)cc1)c1ccc(O)c(O)c1O`, the figure is above 50 µg/mL; as for `O=C(Cc1ccc(Cl)cc1)c1ccc(O)cc1O`, above 50 µg/mL; as for `Oc1ccc(/N=C(/Cc2ccc(Cl)cc2)c2ccc(O)c(O)c2)cc1`, above 50 µg/mL.
Same read-out and setting: as for `Oc1ccc(/N=C(/Cc2ccc(F)cc2)c2ccc(O)c(O)c2)cc1`, the figure is above 50 µg/mL; as for `Oc1ccc(/C(Cc2ccc(F)cc2)=N\c2ccc(Br)cc2)cc1O`, above 50 µg/mL; as for `Cc1ccc(/N=C(/Cc2ccc(F)cc2)c2ccc(O)c(O)c2)cc1`, above 50 µg/mL.
Compound `O=C(Cc1ccc(F)cc1)c1ccc(O)c(O)c1O` displayed an MIC above 50 µg/mL.
Same read-out and setting: as for `O=C(Cc1ccc(F)cc1)c1ccc(O)cc1O`, the figure is above 50 µg/mL.
`Oc1ccc(/C(Cc2ccc(Cl)cc2)=N\c2ccc(Br)cc2)c(O)c1O` had a minimal inhibitory concentration (MIC) above 50 µg/mL.

In the next experiment the test system is Staphylococcus aureus. As to the kind of experiment: Antibacterial activity against Staphylococcus aureus ATCC 6538. The format is functional.
Compound `CC1(C)S[C@@H]2[C@H](NC(=O)Cc3ccccc3)C(=O)N2[C@H]1C(=O)O` [PENICILLIN G] came in with an MIC of 1.56 µg/mL (≈ 4.67 µM).
On the same count and under the same terms, to `Oc1ccc(/C(Cc2ccc(Cl)cc2)=N\c2ccc(Br)cc2)cc1O` belongs 25 µg/mL (≈ 60 µM); to `Oc1ccc(/C(Cc2ccc(F)cc2)=N\c2ccc(Br)cc2)c(O)c1O`, 25 µg/mL (≈ 60.1 µM); to `Oc1ccc(/N=C(/Cc2ccc(Cl)cc2)c2ccc(O)c(O)c2)cc1`, 50 µg/mL (≈ 141 µM).
Take `Oc1ccc(/N=C(/Cc2ccc(F)cc2)c2ccc(O)c(O)c2)cc1`: the MIC came to 50 µg/mL (≈ 148 µM).
The compound `NC[C@H]1O[C@H](O[C@H]2[C@H](O)[C@@H](O[C@H]3O[C@H](CO)[C@@H](O)[C@H](N)[C@H]3O)[C@H](N)C[C@@H]2N)[C@H](N)[C@@H](O)[C@@H]1O` [BEKANAMYCIN] gave an MIC of 1.56 µg/mL (≈ 3.23 µM).
`Oc1ccc(/C(Cc2ccc(F)cc2)=N\c2ccc(Br)cc2)cc1O` gave an MIC of 50 µg/mL (≈ 125 µM).
Same read-out and setting: as for `Cc1ccc(/N=C(/Cc2ccc(F)cc2)c2ccc(O)c(O)c2)cc1`, the figure is 12.5 µg/mL (≈ 37.3 µM); as for `Oc1ccc(/C(Cc2ccc(Cl)cc2)=N\c2ccc(Br)cc2)c(O)c1O`, 50 µg/mL (≈ 116 µM).

For the next experiment, the system named is Pseudomonas aeruginosa. As to the kind of experiment: Antibacterial activity against Pseudomonas aeruginosa ATCC 2785. Format: functional.
With `CC1(C)S[C@@H]2[C@H](NC(=O)Cc3ccccc3)C(=O)N2[C@H]1C(=O)O` [PENICILLIN G], inhibition of growth (MIC) required 6.25 µg/mL (≈ 18.7 µM).
For `Oc1ccc(/C(Cc2ccc(Cl)cc2)=N\c2ccc(Br)cc2)cc1O`, the MIC worked out at 12.5 µg/mL (≈ 30 µM).
Compound `Oc1ccc(/C(Cc2ccc(F)cc2)=N\c2ccc(Br)cc2)c(O)c1O` had an MIC of 25 µg/mL (≈ 60.1 µM).
Same read-out and setting: as for `Oc1ccc(/N=C(/Cc2ccc(Cl)cc2)c2ccc(O)c(O)c2)cc1`, the figure is 50 µg/mL (≈ 141 µM); as for `Oc1ccc(/N=C(/Cc2ccc(F)cc2)c2ccc(O)c(O)c2)cc1`, 50 µg/mL (≈ 148 µM).
The same measure, in the same setting: as for `NC[C@H]1O[C@H](O[C@H]2[C@H](O)[C@@H](O[C@H]3O[C@H](CO)[C@@H](O)[C@H](N)[C@H]3O)[C@H](N)C[C@@H]2N)[C@H](N)[C@@H](O)[C@@H]1O` [BEKANAMYCIN], the figure is 3.12 µg/mL (≈ 6.46 µM); as for `Oc1ccc(/C(Cc2ccc(F)cc2)=N\c2ccc(Br)cc2)cc1O`, 25 µg/mL (≈ 62.5 µM).
As for `Cc1ccc(/N=C(/Cc2ccc(F)cc2)c2ccc(O)c(O)c2)cc1`, the minimal inhibitory concentration (MIC) worked out at 50 µg/mL (≈ 149 µM).
Take `Oc1ccc(/C(Cc2ccc(Cl)cc2)=N\c2ccc(Br)cc2)c(O)c1O`: the MIC stood at 25 µg/mL (≈ 57.8 µM).

In a further experiment the test system is Candida albicans. As to the kind of experiment: Antifungal activity against Candida albicans ATCC 10231. The format is functional.
On to `Oc1ccc(/C(Cc2ccc(Cl)cc2)=N\c2ccc(Br)cc2)cc1O`, for which the MIC was above 50 µg/mL.
Still for that read-out and setting: to `Oc1ccc(/C(Cc2ccc(F)cc2)=N\c2ccc(Br)cc2)c(O)c1O` belongs above 50 µg/mL; to `O=C(Cc1ccc(Cl)cc1)c1ccc(O)c(O)c1O`, above 50 µg/mL.
On the same count and under the same terms, as for `O=C(Cc1ccc(Cl)cc1)c1ccc(O)cc1O`, the figure is above 50 µg/mL; as for `Oc1ccc(/N=C(/Cc2ccc(Cl)cc2)c2ccc(O)c(O)c2)cc1`, above 50 µg/mL.
`Oc1ccc(/N=C(/Cc2ccc(F)cc2)c2ccc(O)c(O)c2)cc1` showed an MIC above 50 µg/mL.
`Oc1ccc(/C(Cc2ccc(F)cc2)=N\c2ccc(Br)cc2)cc1O`: the minimal inhibitory concentration (MIC) is above 50 µg/mL.
In turn, `Cc1ccc(/N=C(/Cc2ccc(F)cc2)c2ccc(O)c(O)c2)cc1` had an MIC above 50 µg/mL.
The same measure, in the same setting: to `O=C(Cc1ccc(F)cc1)c1ccc(O)c(O)c1O` belongs above 50 µg/mL; to `O=C(Cc1ccc(F)cc1)c1ccc(O)cc1O`, above 50 µg/mL.
Still for that read-out and setting: as for `Oc1ccc(/C(Cc2ccc(Cl)cc2)=N\c2ccc(Br)cc2)c(O)c1O`, the figure is above 50 µg/mL.

For the origin of these results see ChEMBL document CHEMBL1155372, “Design and synthesis of novel deoxybenzoin derivatives as FabH inhibitors and anti-inflammatory agents” (Bioorg Med Chem Lett, 2010).
